# Measured values published in patent publication US5204361A, “Method for treating laminitis in equine livestock” (priority 1988, dated 1993).
# Columns and labels:
# [1] = tested on: caecal/large colon digesta; assay: Experiment 2 Part 6: therapeutic use, virginiamycin added after the start of fermentation; format: cell-based, horse; settings: virginiamycin 10 ug/ml added at 4, 8 or 12 h; total 24 h; FIG. 6
# Description: An in vitro experiment was conducted to determine whether by adding the virginiamycin after the start of fermentation of caecal digesta and glucose subsequent lactic acid production could still be prevented.
# Samples of caecal/large colon digesta were prepared as described above (Part 5) but with the following treatments (3 replicates/treatment):
# (a) Control--incubated for 24 h;
# (b) Sampled after 4 h and virginiamycin added before incubating for a total of 24 h;
# (c) As for (b) but with sampling etc at 8 h; and
# (d) As for (b) but sampling etc after 12 h. Virginiamycin was added to provide 10 ug/ml.
# [2] = tested on: caecal/large colon digesta; assay: Experiment 2 Part 2: in vitro fermentation with cornstarch, antibiotics at or below 2 ug/ml; format: cell-based, horse; settings: for L-lactate / pH: cornstarch 0.75 g per flask, 16 hours, mean
# Description: (§1) Digesta was taken from the caecum and large colon from recently slaughtered animals and was filtered through nylon gauze (approximately 60 micron apertures). The fluid was diluted 1:1 with a buffer solution described by Bales et al. (1976) and incubated with wheat "corn starch" (with or without antibiotics) at 37° for 16 to 20 hours. Aliquots of digesta diluted with buffer (50 ml) were added to 100 ml conical flasks. The flasks were flushed with carbon dioxide before being sealed with a tightly fitting rubber cap. A 21 gauge needle was inserted through the rubber seal in order to allow gas to escape during the fermentation. On removal from the incubator sub-samples were immediately taken to measure L-lactic acid concentration and pH. For each treatment or level of antibiotic three replicate incubation flasks were used.
# Incubation flasks were set up as described above with cornstarch (0.75 g) containing virginiamycin, flavomycin or zinc-bacitracin a levels to provide: 0, 0.25, 0.5, 1.0 and 2 ug antibiotic/ml incubation mixture. These flasks were incubated for 16 hours. Flasks were also set up with 0.75 g cornstarch and no antibiotic equipped with a tap and sampling tube in order to take samples from the incubation vessels at various times during the fermentation. Samples were taken at the start of the incubation and at 2, 4, 6, 8, 12 and 24 h. These were analysed for L-lactate concentration and pH.
# [3] = tested on: mixed caecal/large colon digesta; assay: Experiment 2 Part 1: in vitro fermentation of digesta with cornstarch, avoparcin, virginiamycin, flavomycin 2-32 ug/ml; format: cell-based, horse; design: Lactate / Total VFA: unit not given here; settings: for pH / Acet:Prop / Lactate / Total VFA: mean
# Description: as §1
# A range of concentrations of cornstarch providing: 0, 5, 10, 15 and 20 mg/ml diluted digesta (i.e. from 0 to 1 g cornstarch/conical flask) were tested to determine the amount required to produce a pattern of fermentation with high levels of lactic acid. Flasks were also prepared with cornstarch mixed with antibiotic premixes to provide 15 mg cornstarch/ml incubation mixture and 0, 2, 4, 8, 16 and 32 ug of avoparcin, virginiamycin or flavomycin per ml incubation mixture. After approximately 16 hour incubation at 37° samples were taken to measure lactic acid, VFA and pH.
# [4] = tested on: caecal and large colon contents; assay: Experiment 2 Part 3: in vitro screening at 2 ug/ml in digesta of four horses; format: cell-based, horse; settings: for pH / L-lactate: 2 ug antibiotic/ml, 15 mg cornstarch/ml, 20 hour incubation
# Description: as §1
# All four of the antibiotics, listed above, were incubated as previously described to provide 2 ug antibiotic and 15 mg cornstarch per ml incubation mixture. There was one flask per test and each antibiotic was incubated in digesta from both the caecum and the large colon taken from each of 4 animals. Samples of incubation fluid were taken following a 20 hour incubation and were analysed for L-lactate and pH.
# [5] = tested on: caecal/large colon digesta; assay: Experiment 2 Part 5: efficacy of tylosin relative to virginiamycin, digesta incubated with glucose; format: cell-based, horse; settings: antibiotic 1.00 μg/ml, 37°, 20 hours, mean
# [6] = tested on: caecal and large colon digesta; assay: Experiment 2 Part 4: digesta of virginiamycin-fed horses incubated with cornstarch; format: cell-based, horse; settings: for L-lactate, incubated digesta / pH, incubated digesta: digesta of virginiamycin-fed horses incubated 20 hours with cornstarch 15 mg/ml, n = 5, mean
# Description: as §1
# (§2) A total of ten horses were used for this experiment. Five horses were offered 5 kg of a pelleted mixture (ground wheat 92.5%, ground lucerne chaff 5% and `Stafac 20` 2.5% to supply approximately 2.5 g virginiamycin. A further 5 horses were offered the same feed but without virginiamycin. Samples of caecal and large colon digesta were taken for analysis of pH, VFA, virginiamycin and L-lactate. Samples were also prepared as described above with buffer solution and incubated (1 flask/sample) with cornstarch (15 mg/ml diluted digesta). Following 20 hours incubation samples were taken for analysis of L-lactate and pH.
# [7] = tested on: caecal and large colon digesta of horses; assay: Experiment 2 Part 4: fresh digesta of horses fed pelleted diet with virginiamycin; format: in vivo, horse; settings: for pH, fresh digesta / L-lactate, fresh digesta / Total VFA, fresh digesta / % Acetate, fresh digesta / % Butyrate, fresh digesta / % Iso-valerate, fresh digesta / % Propionate, fresh digesta / % Valerate, fresh digesta: n = 5, mean; for % Acetate, fresh digesta / % Butyrate, fresh digesta / % Iso-valerate, fresh digesta / % Propionate, fresh digesta / % Valerate, fresh digesta: molar percentage, feed with virginiamycin
# Description: as §2
# [8] = antibiotic 2 μg/ml, cornstarch 15 mg/ml, approx 16 hour incubation
# [9] = antibiotic 4 μg/ml, cornstarch 15 mg/ml, approx 16 hour incubation
# [10] = antibiotic 8 μg/ml, cornstarch 15 mg/ml, approx 16 hour incubation
# [11] = antibiotic 16 μg/ml, cornstarch 15 mg/ml, approx 16 hour incubation
# [12] = antibiotic 32 μg/ml, cornstarch 15 mg/ml, approx 16 hour incubation
# [13] = Caecum, feed with virginiamycin approx 14 hours before slaughter
# [14] = Colon, feed with virginiamycin approx 14 hours before slaughter
substance,measurement,setting,value
virginiamycin,time after the start of glucose fermentation at which addition of virginiamycin still prevents the build up of lactic acid,[1],up to 8 h
same,L-lactate,[2]; antibiotic 0.25 μg/ml,28.4 mmol/L
same,pH,[2]; antibiotic 0.25 μg/ml,5.45
same,L-lactate,[2]; antibiotic 0.50 μg/ml,28.8 mmol/L
same,pH,[2]; antibiotic 0.50 μg/ml,5.44
same,L-lactate,[2]; antibiotic 1.00 μg/ml,3.2 mmol/L
same,pH,[2]; antibiotic 1.00 μg/ml,5.66
same,L-lactate,[2]; antibiotic 2.00 μg/ml,1.4 mmol/L
same,pH,[2]; antibiotic 2.00 μg/ml,5.78
same,control of lactic acid compared with the other antibiotics,[2]; at concentrations of 1 ug/ml,best control of lactic acid
same,control of lactic acid build up,[3]; Experiment 2 screening programme as a whole,consistent and effective control
same,pH,"[3]; antibiotic 2 μg/ml, cornstarch 15 mg/ml, approx 16 hour incubation at 37°",6.57
same,Acet:Prop,[3]; [8],2.9
same,Lactate,[3]; [8],0.2
same,Total VFA,[3]; [8],93.2
same,Acet:Prop,[3]; [9],3.1
same,Lactate,[3]; [9],0.2
same,Total VFA,[3]; [9],80.8
same,pH,[3]; [9],6.63
same,Acet:Prop,[3]; [10],3.2
same,Lactate,[3]; [10],0.2
same,Total VFA,[3]; [10],79.7
same,pH,[3]; [10],6.66
same,Acet:Prop,[3]; [11],3.8
same,Lactate,[3]; [11],0.0
same,Total VFA,[3]; [11],71.3
same,pH,[3]; [11],6.64
same,Acet:Prop,[3]; [12],3.7
same,Lactate,[3]; [12],0.1
same,Total VFA,[3]; [12],87.1
same,pH,[3]; [12],6.66
same,control of lactic acid build-up,"[3]; at concentrations as low as 2 g/ml, cornstarch 15 mg/ml",total control
same,pH,[4]; Horse 1,5.40
same,L-lactate,"[4]; Horse 1, mean of caecum and large colon",0.3 mmol/L
same,pH,[4]; Horse 2,4.94
same,L-lactate,"[4]; Horse 2, mean of caecum and large colon",34.1 mmol/L
same,pH,[4]; Horse 3,5.17
same,L-lactate,"[4]; Horse 3, mean of caecum and large colon",7.6 mmol/L
same,pH,[4]; Horse 4,5.27
same,L-lactate,"[4]; Horse 4, mean of caecum and large colon",12.3 mmol/L
same,L-lactate,[4]; Mean of 4 horses,13.6 mmol/L
same,pH,[4]; Mean of 4 horses,5.19
same,pH of the incubation fluid relative to unmedicated control,"[4]; all horses, 2 ug/ml, p,0.01",significant increase
same,L-lactate concentration relative to unmedicated control,"[4]; all horses, 2 ug/ml, p<0.001",significant reduction
same,L-lactate,[5],9.3 mmol/L
same,"L-lactate, incubated digesta",[6]; Caecum,5.5 mmol/L
same,"pH, incubated digesta",[6]; Caecum,5.2
same,"L-lactate, incubated digesta",[6]; Colon,1.8 mmol/L
same,"pH, incubated digesta",[6]; Colon,5.3
same,lactic acid produced following incubation with cornstarch versus controls,"[6]; digesta from animals that had consumed virginiamycin, p<0.001",significantly less
same,pH in the incubated digesta versus controls,[6]; digesta from animals that had received virginiamycin,higher pH
same,"pH, fresh digesta","[7]; Caecum, feed with approx 2.5 g virginiamycin approx 14 hours before slaughter",6.2
same,"L-lactate, fresh digesta",[7]; [13],10.3 mmol/L
same,"Total VFA, fresh digesta",[7]; [13],76.1 mmol/L
same,"% Acetate, fresh digesta",[7]; Caecum,50.3%
same,"% Butyrate, fresh digesta",[7]; Caecum,3.2%
same,"% Iso-valerate, fresh digesta",[7]; Caecum,0.0%
same,"% Propionate, fresh digesta",[7]; Caecum,46.5%
same,"% Valerate, fresh digesta",[7]; Caecum,0.5%
same,"L-lactate, fresh digesta",[7]; [14],10.2 mmol/L
same,"Total VFA, fresh digesta",[7]; [14],118.7 mmol/L
same,"pH, fresh digesta",[7]; [14],6.0
same,"% Acetate, fresh digesta",[7]; Colon,52.1%
same,"% Butyrate, fresh digesta",[7]; Colon,3.6%
same,"% Iso-valerate, fresh digesta",[7]; Colon,1.5%
same,"% Propionate, fresh digesta",[7]; Colon,44.3%
same,"% Valerate, fresh digesta",[7]; Colon,0.2%
same,molar percentage of propionate versus control animals,[7]; fresh digesta,more than twice
same,"molar percentages of acetate, butyrate, isovalerate and valerate versus control animals",[7]; fresh digesta,reduced
same,pH of the digesta in the caecum or large colon versus control animals,[7]; fresh digesta,no significant effect
same,total concentration of VFA versus control animals,"[7]; fresh digesta, p<0.001",lower total concentration of VFA
same,concentration of L-lactate in the caecal and large colon digesta versus control animals,"[7]; fresh digesta, p<0.05",higher
